As a reminder, the IC50 is the concentration that inhibits the measured activity by half.

The structures appear in SMILES notation. Bounds are passed on as bounds.

Test [1] concerns the target Tolloid-like protein 1 (Homo sapiens, UniProt O43897, I156V/N221S/V284A). The test is described as follows: Inhibition of recombinant human TLL1 I156V/N221S/V284A mutant expressed in CHOE1A cells pre-incubated for 10 mins before promyostatin peptide substrate addition and measured after 60 mins by FRET based assay. Format: cell-based.
In test [2] the target is T1, Tolloid-like protein 2 (Homo sapiens, UniProt Q9Y6L7).
T1 sequence (Q9Y6L7 whole entry): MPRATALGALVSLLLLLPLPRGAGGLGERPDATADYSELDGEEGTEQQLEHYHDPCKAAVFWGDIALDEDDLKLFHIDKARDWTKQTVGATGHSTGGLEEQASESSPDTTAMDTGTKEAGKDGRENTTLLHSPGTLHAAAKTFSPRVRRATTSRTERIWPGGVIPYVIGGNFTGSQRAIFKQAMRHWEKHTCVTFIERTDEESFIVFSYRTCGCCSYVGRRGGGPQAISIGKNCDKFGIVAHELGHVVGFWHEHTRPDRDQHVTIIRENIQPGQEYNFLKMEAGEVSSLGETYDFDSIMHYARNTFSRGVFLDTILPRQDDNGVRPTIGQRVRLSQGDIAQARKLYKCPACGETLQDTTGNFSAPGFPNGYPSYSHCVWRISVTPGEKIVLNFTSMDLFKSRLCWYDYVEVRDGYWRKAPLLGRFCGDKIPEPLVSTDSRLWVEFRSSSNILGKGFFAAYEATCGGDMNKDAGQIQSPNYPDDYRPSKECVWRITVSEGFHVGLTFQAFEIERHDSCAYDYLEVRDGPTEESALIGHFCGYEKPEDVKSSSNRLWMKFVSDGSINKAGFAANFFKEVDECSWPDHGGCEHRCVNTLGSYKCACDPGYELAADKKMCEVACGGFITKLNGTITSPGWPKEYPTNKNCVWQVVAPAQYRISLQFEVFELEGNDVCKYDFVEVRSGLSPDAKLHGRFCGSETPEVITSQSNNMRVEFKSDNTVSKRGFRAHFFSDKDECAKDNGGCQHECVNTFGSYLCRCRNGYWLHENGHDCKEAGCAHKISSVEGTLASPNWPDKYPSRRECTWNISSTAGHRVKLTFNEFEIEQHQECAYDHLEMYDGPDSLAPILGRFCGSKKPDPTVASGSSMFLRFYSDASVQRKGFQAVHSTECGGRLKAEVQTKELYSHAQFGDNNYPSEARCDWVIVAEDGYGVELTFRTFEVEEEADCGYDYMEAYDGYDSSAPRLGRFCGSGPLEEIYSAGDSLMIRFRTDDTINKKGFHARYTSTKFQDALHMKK
The test is described as follows: Inhibition of C-terminal Avi-6x-His epitope tagged and N-terminal human RAGE signal sequence tagged recombinant human TLL2 (26 to 1015 amino acids) expressed in CHOE1A cells incubated for 60 mins with promyostatin peptide substrate by FRET based assay. Format: cell-based.

Test [3] addresses T2, Bone morphogenetic protein 1 (Homo sapiens, UniProt P13497).
T2 sequence (P13497 whole entry): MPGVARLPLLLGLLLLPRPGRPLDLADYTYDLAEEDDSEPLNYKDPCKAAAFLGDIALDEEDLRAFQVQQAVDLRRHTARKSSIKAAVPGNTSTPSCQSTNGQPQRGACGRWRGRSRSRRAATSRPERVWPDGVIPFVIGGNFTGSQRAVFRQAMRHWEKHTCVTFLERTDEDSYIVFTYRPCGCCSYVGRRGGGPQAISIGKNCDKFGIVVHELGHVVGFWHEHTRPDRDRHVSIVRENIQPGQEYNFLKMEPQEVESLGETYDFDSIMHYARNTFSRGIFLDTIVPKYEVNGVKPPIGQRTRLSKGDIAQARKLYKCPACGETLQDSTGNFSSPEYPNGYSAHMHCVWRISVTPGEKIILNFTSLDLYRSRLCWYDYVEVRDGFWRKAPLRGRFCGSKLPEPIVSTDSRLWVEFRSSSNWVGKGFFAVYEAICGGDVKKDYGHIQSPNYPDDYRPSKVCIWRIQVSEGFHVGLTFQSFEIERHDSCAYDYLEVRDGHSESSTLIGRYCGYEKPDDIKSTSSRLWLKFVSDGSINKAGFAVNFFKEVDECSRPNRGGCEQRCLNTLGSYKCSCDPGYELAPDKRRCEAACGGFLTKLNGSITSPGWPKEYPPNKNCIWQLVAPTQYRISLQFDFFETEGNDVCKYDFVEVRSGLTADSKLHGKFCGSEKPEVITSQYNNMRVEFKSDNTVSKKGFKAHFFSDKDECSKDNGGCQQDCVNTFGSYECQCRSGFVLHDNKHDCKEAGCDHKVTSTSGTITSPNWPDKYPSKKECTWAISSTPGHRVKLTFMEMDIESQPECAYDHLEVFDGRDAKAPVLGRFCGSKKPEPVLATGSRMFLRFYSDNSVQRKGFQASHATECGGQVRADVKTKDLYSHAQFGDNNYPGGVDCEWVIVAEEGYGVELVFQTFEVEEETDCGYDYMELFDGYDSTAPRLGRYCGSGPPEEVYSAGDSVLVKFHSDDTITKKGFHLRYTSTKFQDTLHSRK
In words: Inhibition of C-terminal FLAG-6x-His epitope tagged and N-terminal human RAGE signal sequence tagged human BMP1 (23 to 721 amino acids) expressed in CHO-E1A cells pre-incubated for 10 mins before promyostatin peptide substrate addition and measured after 60 mins using 0.5 nM BMP1 by FRET based assay. Format: cell-based.

Test [4] concerns the target T2, Bone morphogenetic protein 1. The test is described as follows: Inhibition of C-terminal FLAG-6x-His epitope tagged and N-terminal human RAGE signal sequence tagged human BMP1 (23 to 721 amino acids) expressed in CHO-E1A cells pre-incubated for 10 mins before promyostatin peptide substrate addition and measured after 30 mins using 50 nM BMP1 by FRET based assay. Format: cell-based.

The nature of test [5]: Reduction in PICP levels in human cardiac fibroblasts incubated for 24 to 48 hrs by ELISA. Format: functional.
Test [6] is described as follows: Reduction in mature collagen deposition levels in human cardiac fibroblasts incubated for 24 to 48 hrs by immunostaining based assay. Format: functional.

Chain of Tolloid-like protein 1 (O43897 148-1013 I156V/N221S/V284A limits assumed): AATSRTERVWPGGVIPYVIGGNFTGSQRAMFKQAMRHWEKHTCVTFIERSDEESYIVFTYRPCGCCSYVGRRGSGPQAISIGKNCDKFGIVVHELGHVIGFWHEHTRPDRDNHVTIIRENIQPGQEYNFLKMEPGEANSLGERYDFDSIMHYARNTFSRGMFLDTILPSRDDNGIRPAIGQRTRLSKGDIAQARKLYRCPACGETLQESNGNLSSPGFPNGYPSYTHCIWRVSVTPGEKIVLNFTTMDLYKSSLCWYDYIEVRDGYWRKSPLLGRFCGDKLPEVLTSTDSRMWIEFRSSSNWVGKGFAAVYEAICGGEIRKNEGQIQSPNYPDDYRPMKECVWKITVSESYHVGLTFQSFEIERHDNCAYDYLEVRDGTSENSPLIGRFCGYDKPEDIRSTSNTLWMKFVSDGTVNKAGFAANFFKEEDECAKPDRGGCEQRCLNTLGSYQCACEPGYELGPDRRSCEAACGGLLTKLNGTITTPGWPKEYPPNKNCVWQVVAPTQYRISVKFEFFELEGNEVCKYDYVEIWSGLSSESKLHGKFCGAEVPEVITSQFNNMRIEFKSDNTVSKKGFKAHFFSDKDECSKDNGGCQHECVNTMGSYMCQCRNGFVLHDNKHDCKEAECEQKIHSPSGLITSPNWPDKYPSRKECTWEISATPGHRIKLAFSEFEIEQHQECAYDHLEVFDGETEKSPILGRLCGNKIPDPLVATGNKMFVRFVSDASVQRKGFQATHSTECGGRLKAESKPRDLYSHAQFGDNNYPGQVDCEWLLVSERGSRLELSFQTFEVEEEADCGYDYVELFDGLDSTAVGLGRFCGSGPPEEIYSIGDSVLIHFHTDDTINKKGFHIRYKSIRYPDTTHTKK

`CCCCC[C@@H](C(=O)NCNC(=O)c1ccnc(-c2ccc(C(=O)O)c(OCC)c2)n1)[C@@H](CC)N(O)C=O`: the 50% inhibitory concentration (IC50) in test [1] is below 398 nM; in test [2] it was below 631 nM; in test [3], below 126 nM; in test [4], below 251 nM; in test [5], below 20000 nM; in test [6] it was below 1580 nM.

In the case of `CCCCC[C@@H](C(=O)NCNC(=O)c1cccc(-c2ccc(C(=O)N[C@@H](CC(=O)O)C(=O)O)c(OCC)c2)n1)[C@@H](CC)N(O)C=O`, the IC50 was below 398 nM in test [1]; below 631 nM in test [2]; below 126 nM in test [3]; below 251 nM in test [4]; below 20000 nM in test [5]; below 1580 nM in test [6].

Regarding `CCCCC[C@@H](C(=O)NCNC(=O)c1cccc(-c2cc(OCC)cc(C(=O)O)c2)n1)[C@@H](CC)N(O)C=O`, the IC50 in test [1] is below 398 nM; in test [2] it was below 631 nM; in test [3] it was below 126 nM; in test [4], below 251 nM; in test [5], below 20000 nM; in test [6], below 1580 nM.

Turning to `CCOc1cc(-c2cccc(C(=O)NCNC(=O)[C@H](CCc3ccccc3)[C@@H](CC)N(O)C=O)n2)ccc1C(=O)O`, the half-inhibitory concentration (IC50) was below 126 nM in test [3], below 251 nM in test [4], below 20000 nM in test [5] and below 1580 nM in test [6].

Consider `CCCCC[C@@H](C(=O)NCNC(=O)c1cncc(-c2ccc(P(=O)(O)O)c(OCC)c2)n1)[C@@H](CC)N(O)C=O`, for which the IC50 is below 398 nM in test [1]; below 631 nM in test [2]; below 126 nM in test [3]; below 251 nM in test [4]; below 20000 nM in test [5]; below 1580 nM in test [6].

Consider `CCCCC[C@@H](C(=O)NCNC(=O)c1cccc(-c2cc(OCC)cc(C(=O)NCCN)c2)n1)[C@@H](CC)N(O)C=O`, for which the 50% inhibitory concentration (IC50) is below 126 nM in test [3], below 251 nM in test [4], below 20000 nM in test [5] and below 1580 nM in test [6].

On to `CCCCC[C@@H](C(=O)NCNC(=O)c1ccnc(-c2ccc(P(=O)(O)O)c(OCC)c2)n1)[C@@H](CC)N(O)C=O`, for which the 50% inhibitory concentration (IC50) in test [1] is below 398 nM; in test [2], below 631 nM; in test [3], below 126 nM; in test [4] it was below 251 nM; in test [5] it was below 20000 nM; in test [6] it was below 1580 nM.

With `CCCCC[C@@H](C(=O)NCNC(=O)c1cccc(-c2ccc(CC(=O)O)c(OCC)c2)c1)[C@@H](CC)N(O)C=O`, the concentration for half-maximal inhibition (IC50) in test [1] was below 398 nM; in test [2], below 631 nM; in test [3], below 126 nM; in test [4], below 251 nM; in test [5], below 20000 nM; in test [6] it was below 1580 nM.

Take `CCCCC[C@@H](C(=O)NCNC(=O)c1cccc(-c2ccc(CC(=O)N[C@@H](CC(=O)O)C(=O)O)c(OCC)c2)n1)[C@@H](CC)N(O)C=O`: the 50% inhibitory concentration (IC50) is below 398 nM in test [1]; below 631 nM in test [2]; below 126 nM in test [3]; below 251 nM in test [4]; below 20000 nM in test [5]; below 1580 nM in test [6].

For `CCCCC[C@@H](C(=O)NCNC(=O)c1cccc(-c2cc(C(=O)O)cc(S(N)(=O)=O)c2)n1)[C@@H](CC)N(O)C=O`, the IC50 is below 398 nM in test [1]; below 631 nM in test [2]; below 126 nM in test [3]; below 251 nM in test [4]; below 20000 nM in test [5]; below 1580 nM in test [6].

For `CCCCC[C@H](CN(O)C=O)C(=O)NCNC(=O)c1cccc(-c2cccc(C(C)C)c2)c1`, the half-inhibitory concentration (IC50) was below 398 nM in test [1]; below 631 nM in test [2]; below 126 nM in test [3]; below 251 nM in test [4]; below 20000 nM in test [5].

For the origin of these results see ChEMBL document CHEMBL4476883, “Hydroxy formamide derivatives and their use” (2017).
